From ChEMBL document CHEMBL1142604, “Chamazulene carboxylic acid and matricin: a natural profen and its natural prodrug, identified through similarity to synthetic drug substances” (J Nat Prod, 2006)

Legend:
[1] = test system: Rattus norvegicus; test: Antiinflammatory activity in rat assessed as inhibition of carrageenan-induced right paw edema at 300 mg/kg after 1 hr; assay type: functional
[2] = test system: Rattus norvegicus; test: Antiinflammatory activity in rat assessed as inhibition of carrageenan-induced right paw edema at 600 mg/kg after 1 hr; assay type: functional
[3] = test system: Rattus norvegicus; test: Antiinflammatory activity in rat assessed as inhibition of carrageenan-induced right paw edema at 600 mg/kg after 3 hrs; assay type: functional
[4] = test system: Mus musculus; test: Antiinflammatory activity in mouse assessed as inhibition of phorbol […]-induced ear lobe edema at 0.1 umol/ear after 24 hrs relative to control; assay type: functional
[5] = Cmax in human at 500 mg, po; assay type: ADME, organism-based; parameters: dose 500 mg, route oral; conditions: in vivo
[6] = test system: Homo sapiens; test: Plasma concentration in human at 500 mg, po after 75 to 90 mins; assay type: ADME, organism-based; conditions: in vivo
[7] = Lipophilicity, log D at pH 7.4; assay type: physicochemical; conditions: buffer
[8] = test system: Mus musculus; test: Antiinflammatory activity in mouse assessed as inhibition of phorbol […]-induced ear lobe edema at 0.1 umol/ear after 6 hrs relative to control; assay type: functional
[9] = test system: Mus musculus; test: Antiinflammatory activity in mouse assessed as inhibition of phorbol […]-induced ear lobe edema; assay type: functional; parameters: scale not given: the % may be the effect or the level left
[10] = Plasma concentration in human at 300 mg, po after 2.5 hrs; assay type: ADME, organism-based
[11] = Tmax in human at 500 mg, po; assay type: ADME, organism-based; conditions: in vivo
[12] = test system: Mus musculus; test: Antiinflammatory activity in mouse assessed as inhibition of phorbol […]-induced ear lobe edema at 1 umol/ear after 24 hrs; assay type: functional
[13] = Elimination half life in human at 500 mg, po; assay type: ADME, organism-based; conditions: in vivo, read-out: beta t1/2 (converted)
[14] = test system: Mus musculus; test: Antiinflammatory activity in mouse assessed as inhibition of phorbol […]-induced ear lobe edema at 1 umol/ear after 48 hrs relative to control; assay type: functional
[15] = Plasma concentration in human at 300 mg, po after 25 hrs; assay type: ADME, organism-based
[16] = species: Homo sapiens; test: Plasma concentration in human by HPLC assay; assay type: ADME, organism-based; conditions: in vivo
[17] = test system: Mus musculus; test: Antiinflammatory activity in mouse assessed as inhibition of phorbol […]-induced ear lobe edema at 1 umol/ear after 6 hrs relative to control; assay type: functional
[18] = AUC (0 to infinity) in human at 500 mg, po; assay type: ADME, organism-based; parameters: dose 500 mg, time infinity, route oral; conditions: plasma
[19] = Elimination constant, beta in human at 500 mg, po; assay type: ADME, organism-based; conditions: in vivo
[20] = test system: Homo sapiens; test: Absorption coefficient, Ka in human at 500 mg, po; assay type: ADME, organism-based; conditions: in vivo
[21] = test system: Mus musculus; test: Antiinflammatory activity in mouse assessed as inhibition of phorbol […]-induced ear lobe edema at 0.1 umol/ear after 48 hrs relative to control; assay type: functional
[22] = Plasma concentration in human at 300 mg, po after 5 hrs; assay type: ADME, organism-based
[23] = Reduction in prostaglandin metabolite level in human urine at 500 mg, po; assay type: ADME; parameters: scale not given: the % may be the effect or the level left; conditions: in vivo
[24] = molecular target: T1, Prostaglandin G/H synthase 1 (Ovis aries) (UniProt P05979); test: Inhibition of ram COX1 at 50 uM
T1 sequence (whole entry): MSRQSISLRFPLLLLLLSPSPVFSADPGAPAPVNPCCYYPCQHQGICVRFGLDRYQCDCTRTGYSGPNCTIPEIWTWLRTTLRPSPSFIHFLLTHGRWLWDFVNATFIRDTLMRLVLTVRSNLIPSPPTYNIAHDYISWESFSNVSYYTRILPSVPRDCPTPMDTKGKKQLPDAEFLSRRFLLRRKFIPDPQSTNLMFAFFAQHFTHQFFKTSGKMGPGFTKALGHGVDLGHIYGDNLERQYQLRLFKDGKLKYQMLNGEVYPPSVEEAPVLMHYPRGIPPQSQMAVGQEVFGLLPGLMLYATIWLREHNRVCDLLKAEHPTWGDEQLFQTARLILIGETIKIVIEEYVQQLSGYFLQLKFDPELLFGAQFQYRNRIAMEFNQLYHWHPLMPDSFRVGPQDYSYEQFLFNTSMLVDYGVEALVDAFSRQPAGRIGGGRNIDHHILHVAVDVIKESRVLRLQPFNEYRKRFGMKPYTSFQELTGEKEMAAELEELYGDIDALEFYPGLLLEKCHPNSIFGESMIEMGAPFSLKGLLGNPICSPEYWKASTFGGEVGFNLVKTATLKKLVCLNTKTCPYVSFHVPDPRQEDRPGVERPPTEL

[25] = test system: Homo sapiens; test: Volume of distribution in human at 500 mg, po; assay type: ADME, organism-based; conditions: in vivo
[26] = Dissociation constant, pKa of the compound; assay type: physicochemical
[27] = Metabolic stability in artificial gastric fluid assessed as transformation to chamazulene carboxylic acid after 60 mins; assay type: physicochemical; conditions: simulated gi fluid, 1 h

Cc1ccc([C@H](C)C(=O)OCOC(=O)C(C)(C)C)cc2c(C)ccc1-2
inhibition in vivo at 300 mg/kg [1]: 34.8%

COC(=O)[C@@H](C)c1ccc(C)c2ccc(C)c-2c1
inhibition in vivo at 300 mg/kg [1]: 22.8%

CC(=O)Oc1ccccc1C(=O)O [ASPIRIN]
inhibition in vivo at 600 mg/kg [2]: 92.4%
inhibition in vivo at 600 mg/kg [3]: 77.3%

Cc1ccc([C@H](C)C(=O)O)cc2c(C)ccc1-2 [CHAMAZULENE CARBOXYLIC ACID]
inhibition (INH) [4]: 19%
Cmax [5]: 900 ng/mL
inhibition in vivo at 300 mg/kg [1]: 17.4%
Cp [6]: 900 ng/mL
logD [7]: 0.79
inhibition (INH) [8]: 12%
Activity [9]: 23%
concentration at 2.5 h [10]: 1700 ng/mL
Tmax [11]: 1.25 h
inhibition (INH) [12]: 14%
half-life [13]: 4 h
inhibition (INH) [14]: 24%
concentration at 25 h [15]: 2900 ng/mL
Cp [16]: 100 ng/mL
inhibition (INH) [17]: 38%
AUC(0-inf) [18]: 14700 ng·h/mL
k el [19]: 4.72e-05 s⁻¹
Ka [20]: 0.53 h⁻¹
inhibition (INH) [21]: 35%
concentration at 5 h [22]: 2400 ng/mL
Activity [23]: 40%
inhibition [24]: 17.4%
Vd [25]: 133 L
pKa [26]: 4.14

CC(C)Cc1ccc([C@H](C)C(=O)O)cc1 [DEXIBUPROFEN]
logD [7]: 1.07

CC(C(=O)O)c1ccc(-c2ccccc2)c(F)c1 (stereo not drawn) [FLURBIPROFEN]
logD [7]: 0.85
pKa [26]: 4.6

CC(=O)O[C@H]1CC(C)=C2C=C[C@@](C)(O)[C@@H]2[C@H]2OC(=O)[C@@H](C)[C@@H]21 [MATRICIN]
Stability [27]: Stable

COc1ccc2cc([C@H](C)C(=O)O)ccc2c1 [NAPROXEN]
inhibition (INH) [4]: 21%
inhibition (INH) [8]: 28%
Activity [9]: 59%
inhibition (INH) [14]: 25%
inhibition (INH) [17]: 45%
inhibition (INH) [21]: 18%
